Laboratory results as given in US20260070917A1, “CYCLIN DEPENDENT KINASE DEGRADERS AND METHODS OF USE THEREOF” (Differentiated Therapeutics Inc, priority 2023, published 2026).

What was measured:
Format in all cases: cell-based
CDK2 = target: T1, CDK2 (Homo sapiens, UniProt P24941); assay: HiBit Assay Protocol for CDK2 (HIBIT protein quantification, degradation); conditions: HEK293-CDK2-Hibit cells, compound treatment for 6 hours; for DC50: ABS DC50
T1 construct: host or cells: HEK293-CDK2-Hibit
Protocol: HiBit Assay Protocol for CDK2
• 1. The culture medium for HEK293-CDK2-Hibit cells was prepared using DMEM with 10% FBS. • 2. Cells were cultivated in T-75 flasks in a cell culture incubator set at 37° C., 5% CO2, 95% relative humidity. Cells were allowed to reach 80-90% confluence before detaching and splitting. • 3. Cultivated cells were rinsed in T-75 flasks with 5 mL PBS. Aspirate off Added was 1.5 mL trypsin, and the cells were incubated at 37° C. for approximately 5 minutes or until the cells detached and floated. • 4. Trypsin was inactivated by adding excess serum containing medium. • 5. Cells were harvested from flask into cell culture medium and then the cell number was counted. HEK293-CDK2-Hibit cells were seeded into 384-well plate (cell density: 1.6×10^5 cells/well/50 uL medium) in DMEM medium according to the plate map below and incubated overnight at 37° C. and 5% CO2. • Note: Cell Cultured Medium: 90% DMEM+10% FBS+1% Penicillin-Streptomycin Liquid
(§1) • 1. Test compounds were dissolved at 10 mM DMS stock solution. 45 uL of stock solution was transferred to a 384 pp-plate. A 3-fold, 10-point dilution was performed via transferring 15 uL compound into 30 uL DMSO by using TECAN liquid handler. • 2. The plates were spinned at room temperature at 1,000 RPM for 1 minute. • 3. 50 nL of diluted compound was transferred from compound source plate into the cell plate by Echo. • 4. After compound treatment for 6 hours, the plate was removed from incubators and equilibrated at room temperature for 15 minutes. The HiBit reagent was prepared, consisting of the following ratios: 10 mL of Nano-Glo®-HiBiT Lytic Buffer, 200 μL of Nano-Glo®-HiBiT Lytic Substrate and 100 uL of LgBiT Protein, mixed thoroughly. 20 μL of HiBit reagent was added into each well and the plates were spinned at room temperature at 1,000 RPM for 1 minute to be detected. Then the plates were shaken at 600 RPM at room temperature for 20 minutes, and read by EnVision. • 5. The inhibition activity was calculated following the formula below:
(§2) [formula] • Note: Where HC is obtained from cells treated with […] only; LC is obtained from culture medium only. • 6. ABS DC50 was calculated by fitting the Curve using Xlfit (v5.3.1.3), equation 201: […]

CDK9 = target: T2, CDK9 (Homo sapiens, UniProt P50750); assay: HiBit Assay Protocol for CDK9 (HIBIT protein quantification, degradation); conditions: 6 h, HEK293-CDK9-Hibit cells, compound treatment for 6 hours; read-out: CDK9 HIBIT Protein Quantification Maximum
T2 construct: host or cells: HEK293-CDK9-Hibit
T2 sequence (P50750 whole entry): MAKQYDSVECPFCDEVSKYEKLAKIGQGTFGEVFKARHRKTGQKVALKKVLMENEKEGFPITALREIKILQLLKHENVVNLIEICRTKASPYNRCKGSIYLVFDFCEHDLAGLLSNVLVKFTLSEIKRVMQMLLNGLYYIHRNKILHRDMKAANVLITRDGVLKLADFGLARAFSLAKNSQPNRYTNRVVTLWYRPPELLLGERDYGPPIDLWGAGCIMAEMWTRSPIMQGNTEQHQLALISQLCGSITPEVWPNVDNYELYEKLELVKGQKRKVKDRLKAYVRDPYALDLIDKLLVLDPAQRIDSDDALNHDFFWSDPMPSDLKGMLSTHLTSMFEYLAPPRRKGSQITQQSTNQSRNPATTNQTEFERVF
Protocol: HiBit Assay Protocol for CDK9
• 1. The culture medium for HEK293-CDK9-Hibit cell was prepared using DMEM with 10% FBS. • 2. Cells were cultivated in T-75 flasks in a cell culture incubator set at 37° C., 5% CO2, 95% relative humidity. Cells were allowed to reach 80-90% confluence before detaching and splitting. • 3. Cultivated cells were rinsed in T-75 flasks with 5 mL PBS. Aspirated off. Added 1.5 mL trypsin, and incubated the cells at 37° C. for approximately 5 minutes or until the cells detached and floated. • 4. Trypsin was inactivated by adding excess serum containing medium. • 5. Cells were harvested from flask into cell culture medium and then the cell number was counted. HEK293-CDK9-Hibit cells were seeded into 384-well plate (cell density: 1.6×10^5 cells/well/50 uL medium) in DMEM medium according to the plate map below and were incubated overnight at 37° C. and 5% CO2. • Note: Cell Cultured Medium: 90% DMEM+10% FBS+1% Penicillin-Streptomycin Liquid
• 1. Test compounds were dissolved at 3 mM DMSO stock solution. Transferred 45 uL of stock solution to a 384 pp-plate. Perform 3-fold, 10-point dilution via transferring 15 uL compound into 30 uL DMSO by using TECAN liquid handler. • 2. The plates were spinned at room temperature at 1,000 RPM for 1 minute. • 3. Transferred 50 nL of diluted compound from compound source plate into the cell plate by Echo. • 4. After compound treatment for 6 hours, removed the plate from incubators and equilibrated at room temperature for 15 minutes. Prepared the HiBit reagent consists of the following ratios: 10 mL of Nano-Glo®-HiBiT Lytic Buffer, 200 uL of Nano-Glo®-HiBiT Lytic Substrate and 100 uL of LgBiT Protein, mixed thoroughly. Added 20 uL of HiBit reagent into each well and spinned the plates at room temperature at 1,000 RPM for 1 minute to be detected. Plates were then shaken at 600 RPM at room temperature for 20 minutes, and read by EnVision. • 5. The inhibition activity was calculated following the formula below:
[formula] • Note: Where HC was obtained from cells treated with 0.1% DMSO only; LC was obtained from culture medium only. • 6. The ABS DC50 was calculated by fitting the Curve using Xlfit (v5.3.1.3), equation 201: […]

CCNE1 = target: T3, CCNE1 (Homo sapiens, UniProt P24864); assay: HiBit Assay Protocol for CCNE1 (HIBIT protein quantification, degradation); conditions: HEK293-CCNE1-Hibit cells, compound treatment for 6 hours
T3 construct: host or cells: HEK293-CCNE1-Hibit
T3 sequence (P24864 whole entry): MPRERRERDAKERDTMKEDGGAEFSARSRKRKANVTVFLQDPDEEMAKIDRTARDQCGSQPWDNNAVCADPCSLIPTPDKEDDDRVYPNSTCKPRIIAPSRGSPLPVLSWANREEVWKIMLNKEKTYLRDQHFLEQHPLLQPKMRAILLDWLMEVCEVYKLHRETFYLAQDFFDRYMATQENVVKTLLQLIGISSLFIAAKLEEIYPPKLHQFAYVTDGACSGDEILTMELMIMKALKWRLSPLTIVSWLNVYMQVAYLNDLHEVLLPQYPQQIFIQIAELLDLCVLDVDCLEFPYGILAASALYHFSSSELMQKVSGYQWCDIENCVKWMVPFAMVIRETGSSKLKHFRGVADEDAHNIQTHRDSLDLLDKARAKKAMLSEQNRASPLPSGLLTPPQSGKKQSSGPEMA
Protocol: HiBit Assay Protocol for CCNE1
• 1. The culture medium for HEK293-CCNE1-Hibit cell was prepared using EMEM with […]. • 2. Cells were cultivated in T-75 flasks in a cell culture incubator set at 37° C., 5% CO2, 95% relative humidity. Cells were allowed to reach 80-90% confluence before detaching and splitting. • 3. Cultivated cells were rinsed in T-75 flasks with 5 mL PBS. Aspirate off Added was 1.5 mL trypsin, and the cells were incubated at 37° C. for approximately 5 minutes or until the cells detached and floated. • 4. Trypsin was inactivated by adding excess serum containing medium. • 5. Cells were harvested from flask into cell culture medium and then the cell number was counted. HEK293-CCNE1-Hibit cell were seeded into 384-well plate (cell density: 1.6×10^5 cells/well/50 uL medium) in EMEM medium according to the plate map below and incubated overnight at 37° C. and […]. • Note: Cell Cultured Medium: 90% EMEM+10% FBS+1% Penicillin-Streptomycin Liquid
as §1, with “mM DMSO” for “mM DMS”, “45 μL” for “45 uL”, “100 μL” for “100 uL”, “Protein, mix” for “Protein, mixed”
as §2

## CC1CCCC1N1C(=O)C2(CC2)c2cnc(NC3CCN(S(=O)(=O)N4CCC5(CCN(CCCCCCCOc6cccc7c6n(C)c(=O)n7C6CCC(=O)NC6=O)C5)C4)CC3)nc21 (stereo not drawn) [Compound 141, 3-(3-Methyl-4-{[7-(7-{4-[7′-(2-methylcyclopentyl)-6′-oxospiro[cyclopropane-1,5′-pyrrolo[2,3-d]pyrimidin]-2′-ylamino]piperidin-1-ylsulfonyl}-2,7-diazaspiro[4.4]nonan-2-yl)heptyl]oxy}-2-oxo-1,3-benzodiazol-1-yl)piperidine-2,6-dione]
CDK2
  CDK2 HIBIT Protein Quantification Maximum: 49%
CDK9
  Dmax: 27%
CCNE1
  CCNE1 HIBIT Protein Quantification Maximum: 25%

## Cn1c(=O)n(C2CCC(=O)NC2=O)c2cccc(-c3ccc(Oc4cccc(S(=O)(=O)N5CCC(Nc6ncc7c(n6)N([C@@H]6CCC[C@@H](O)C6)C(=O)C76CC6)CC5)c4)cc3)c21 (stereo partly drawn) [Compound 150]
CDK2
  CDK2 HIBIT Protein Quantification Maximum: 67%
  DC50: 12.9 nM
CDK9
  Dmax: 45%
CCNE1
  CCNE1 HIBIT Protein Quantification Maximum: 41%

## CC1CCCC1N1C(=O)C2(CC2)c2cnc(NC3CCN(S(=O)(=O)N4CC5(CCN(C(=O)CCCCCCCc6ccc7c(c6)n(C)c(=O)n7C6CCC(=O)NC6=O)CC5)C4)CC3)nc21 (stereo not drawn) [Compound 83]
CDK2
  CDK2 HIBIT Protein Quantification Maximum: 29%
CDK9
  Dmax: 16%
CCNE1
  CCNE1 HIBIT Protein Quantification Maximum: 13%

## CC1CCCC1N1C(=O)C2(CC2)c2cnc(NC3CCN(S(=O)(=O)N4CC5(CCN(C(=O)CCCCc6ccc7c(c6)n(C)c(=O)n7C6CCC(=O)NC6=O)CC5)C4)CC3)nc21 (stereo not drawn) [Compound 109]
CDK2
  CDK2 HIBIT Protein Quantification Maximum: 57%
  DC50: 4 nM
CDK9
  Dmax: 47%
CCNE1
  CCNE1 HIBIT Protein Quantification Maximum: 22%

## CC1CCCC1N1C(=O)C2(CC2)c2cnc(NC3CCN(S(=O)(=O)N4CC5C4CCN5C(=O)CCCCc4ccc5c(c4)n(C)c(=O)n5C4CCC(=O)NC4=O)CC3)nc21 (stereo not drawn) [Compound 110]
CDK2
  CDK2 HIBIT Protein Quantification Maximum: 20%
CDK9
  Dmax: 14%
CCNE1
  CCNE1 HIBIT Protein Quantification Maximum: 5%

## O=C1CCC(N2Cc3cc(CN4CC(Oc5cccc(S(=O)(=O)N6CCC(Nc7ncc8c(n7)N([C@@H]7CCC[C@@H](O)C7)C(=O)C87CC7)CC6)c5)C4)ccc3C2=O)C(=O)N1 (stereo partly drawn) [Compound 132, 3-[5-({3-[3-(4-{7′-[(1R,3R)-3-Hydroxycyclohexyl]-6′-oxospiro[cyclopropane-1,5′-pyrrolo[2,3-d]pyrimidin]-2′-ylamino}piperidin-1-ylsulfonyl)phenoxy]azetidin-1-yl}methyl)-1-oxo-3H-isoindol-2-yl]piperidine-2,6-dione]
CDK2
  CDK2 HIBIT Protein Quantification Maximum: 48%
CDK9
  Dmax: 7%
CCNE1
  CCNE1 HIBIT Protein Quantification Maximum: 47%

## CC1CCCC1N1C(=O)C2(CC2)c2cnc(NC3CCN(S(=O)(=O)N4CCC5(CCN(C(=O)CCCCCCCCCc6cccc7c6n(C)c(=O)n7C6CCC(=O)NC6=O)C5)C4)CC3)nc21 (stereo not drawn) [Compound 52]
CDK2
  CDK2 HIBIT Protein Quantification Maximum: 56%
  DC50: 2 nM
CDK9
  Dmax: 29%
CCNE1
  CCNE1 HIBIT Protein Quantification Maximum: 19%

## CC1CCCC1N1C(=O)C2(CC2)c2cnc(NC3CCN(S(=O)(=O)N4CC5(CCCN(C(=O)CCCCc6cccc7c6n(C)c(=O)n7C6CCC(=O)NC6=O)C5)C4)CC3)nc21 (stereo not drawn) [Compound 96]
CDK2
  CDK2 HIBIT Protein Quantification Maximum: 46%
CDK9
  Dmax: 26%
CCNE1
  CCNE1 HIBIT Protein Quantification Maximum: 46%
